# Experimental data from patent US5436254A, “Carbostyril derivatives” (Otsuka Pharmaceutical Company, Ltd., priority 1989, dated 1995).
# Counter-ions that a name gives are not always drawn.
# Target: V1 receptor (Rattus norvegicus, UniProt P30560)
# Test: biochemical
# Assay type: binding
# Conditions: not given
# V1 receptor, sequence (P30560 whole entry): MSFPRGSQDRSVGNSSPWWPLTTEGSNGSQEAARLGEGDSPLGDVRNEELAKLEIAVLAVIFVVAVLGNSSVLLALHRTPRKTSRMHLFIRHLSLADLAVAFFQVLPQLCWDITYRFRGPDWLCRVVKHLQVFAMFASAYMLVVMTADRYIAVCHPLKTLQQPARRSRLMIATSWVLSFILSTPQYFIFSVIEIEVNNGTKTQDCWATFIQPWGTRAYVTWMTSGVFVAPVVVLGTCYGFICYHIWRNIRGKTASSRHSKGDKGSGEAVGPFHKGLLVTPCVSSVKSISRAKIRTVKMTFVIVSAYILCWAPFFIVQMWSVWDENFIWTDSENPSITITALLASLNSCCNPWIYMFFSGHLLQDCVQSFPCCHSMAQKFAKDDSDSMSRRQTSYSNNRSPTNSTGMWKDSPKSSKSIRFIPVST
row,SMILES,IC50 [nM]
1,"CN(CCO)CCCCCOc1ccc(C(=O)N2CCC(N3C(=O)CCc4ccccc43)CC2)cc1 [Example 244, 1-{1-(4-[5-(N-(2-Hydroxyethyl)-N-methylamino)pentyloxy]benzoyl)-4-piperidinyl}-3,4-dihydrocarbostyril]",34
2,"CCOC(=O)NCCCOc1ccc(C(=O)N2CCC(N3C(=O)CCc4ccccc43)CC2)cc1 [Example 168, 1-{1-[4-(3-Ethoxycarbonylaminopropoxy)benzoyl]-4-piperidinyl}-3,4-dihydrocarbostyril]",190
3,"CN(C)CCCOc1ccc(C(=O)N2CCC(N3C(=O)CCc4ccccc43)CC2)cc1 [Example 17, 1-{1-[4-(3-Dimethylaminopropoxy)benzoyl]-4-piperidinyl}-3,4-dihydrocarbostyril]",430
4,"NC(=O)CNC(=O)CCCCOc1ccc(C(=O)N2CCC(N3C(=O)CCc4ccccc43)CC2)cc1 [Example 4, 1-{1-[4-(4-Carbamoylmethylaminocarbonylbutoxy)benzoyl]-4-piperidinyl}-3,4-dihydrocarbostyril]",240
5,"CN1CCN(CC(O)CCCCOc2ccc(C(=O)N3CCC(N4C(=O)CCc5ccccc54)CC3)cc2)CC1 (stereo not drawn) [Example 178, 1-{1-[4-(5-Hydroxy-6-(4-methyl-1-piperazinyl)hexyloxy]benzoyl]-4-piperidinyl}-3,4-dihydrocarbostyril]",45
6,"Cn1ccnc1SCCCCCOc1ccc(C(=O)N2CCC(N3C(=O)CCc4ccccc43)CC2)cc1 [Example 278, 1-{1-(4-[5-(1-Methyl-2-imidazolylthio)pentyloxy]benzoyl)-4-piperidinyl}-3,4-dihydrocarbostyril]",110
7,"CC(=O)OC1CCC(C(=O)NCCCCCOc2ccc(C(=O)N3CCC(N4C(=O)CCc5ccccc54)CC3)cc2)CC1OC(C)=O (stereo not drawn) [Example 261, 1-{1-(4-[5-(3,4-Diacetoxycyclohexylcarbonyl)aminopentyloxy]benzoyl)-4-piperidinyl}-3,4-dihydrocarbostyril]",120
8,"O=C(c1ccc(OCCCCCN2CCN(c3ccccn3)CC2)cc1)N1CCC(N2C(=O)CCc3ccccc32)CC1 [Example 234, 1-{1-(4-[5-(4-[2-Pyridyl]-1-piperazinyl)pentyloxy]benzoyl)-4-piperidinyl}-3,4-dihydrocarbostyril]",180
9,"CC(C)=CCCC(C)=CC(=O)N1CCC(N2C(=O)CCc3ccccc32)CC1 [Example 114, 1-[1-(2,6-Dimethyl-1,5-heptadiene-1-carbonyl)-4-piperidinyl]-3,4-dihydrocarbostyril]",1500
10,O=C(CC12CC3CC(CC(C3)C1)C2)N1CCC(N2C(=O)CCc3ccccc32)CC1 [Example 115],700
11,"O=C(c1ccc(OCCCN2CCNCC2)cc1)N1CCC(N2C(=O)CCc3ccccc32)CC1 [Example 132, 1-[1-{4-[3-(1-piperazinyl)propoxy]benzoyl}-4-piperidinyl]-3,4-dihyrocarbostyril.dihydrochloride.trihydrate]",160
12,"O=C(NCCCCOc1ccc(C(=O)N2CCC(N3C(=O)CCc4ccccc43)CC2)cc1)C1CCNCC1 [Example 231, 1-[1-(4-[4-(4-Piperidinylcarbonylamino)butoxy]benzoyl)-4-piperidinyl)-3,4-dihydrocarbostyril]",41
13,O=C(NCCCCCOc1ccc(C(=O)N2CCC(N3C(=O)CCc4ccccc43)CC2)cc1)C1CCC(O)C(O)C1 (stereo not drawn) [Example 260],150
14,"NC(=O)CCCNc1ccc(C(=O)N2CCC(N3C(=O)CCc4ccccc43)CC2)cc1 [Example 88, 1-{1-[4-(3-Carbamoylpropylamino)benzoyl]-4-piperidinyl)-3,4-dihydrocarbostyril]",1000
15,"O=C(c1ccccc1)c1ccc(C(=O)N2CCC(N3C(=O)CCc4ccccc43)CC2)cc1 [Example 72, 1-[1-(4-Benzoylbenzoyl)-4-piperidinyl]-3,4-dihydrocarbostyril]",480
16,"Nc1ccc(C(=O)NCCCCCOc2ccc(C(=O)N3CCC(N4C(=O)CCc5ccccc54)CC3)cc2)cc1 [Example 262, 1-{1-(4-[5-(4-Aminobenzoyl)aminopentyloxy]benzoyl)-4-piperidinyl}-3,4-dihydrocarbostyril]",93
17,"COc1ccc(C(=O)N2CCC(N3C(=O)CCc4ccccc43)CC2)c(O)c1 [Example 60, 1-[1-(2-Hydroxy-4-methoxybenzoyl)-4-piperidinyl]-3,4-dihydrocarbostyril]",200
18,"O=C(c1ccc(OCCCC(O)CN2CCOCC2)cc1)N1CCC(N2C(=O)CCc3ccccc32)CC1 (stereo not drawn) [Example 189, 1-{1-[4-(4-Hydroxy-5-morpholinopentyloxy)benzoyl]-4-piperidinyl}-3,4-dihydrocarbostyril]",130
19,"COC(=O)[C@H](CO)NC(=O)CCCOc1ccc(C(=O)N2CCC(N3C(=O)CCc4ccccc43)CC2)cc1 [Example 10, Methyl N-[4-{4-[4-(1,2,3,4-tetrahydro-2-oxo-1-quinolyl)-1-piperidinylcarbonyl]phenoxy}]butanoyl-L-serinate]",320

row,SMILES,IC50 [nM]
1,"CCNC(=O)NCCCOc1ccc(C(=O)N2CCC(N3C(=O)CCc4ccccc43)CC2)cc1 [Example 198, 1-{1-[4-(3-Ethylaminocarbonylaminopropoxy)benzoyl]-4-piperidinyl}-3,4-dihydrocarbostyril]",320
2,"CCN(CC)CCCCCOc1ccc(C(=O)N2CCC(N3C(=O)CCc4ccccc43)CC2)c(OCCCCCN(CC)CC)c1 [Example 292, 1-{1-[2,4-Di(5-diethylaminopentyloxy]benzoyl)-4-piperidinyl}-3,4-dihydrocarbostyril]",77
3,"CCOc1cc(OC)ccc1C(=O)N1CCC(N2C(=O)CCc3ccccc32)CC1 [Example 59, 1-[1-(2-Ethoxy-4-methoxybenzoyl)-4-piperidinyl]-3,4-dihydrocarbostyril]",200
4,"O=C(c1ccc(OCCCC(O)CN2CCCC2)cc1)N1CCC(N2C(=O)CCc3ccccc32)CC1 (stereo not drawn) [Example 186, 1-{1-[4-(4-Hydroxy-5-(1-pyrrolidinyl)pentyloxy)benzoyl]-4-piperidinyl}-3,4-dihydrocarbostyril]",63
5,"CCN(C)c1cc(OC)ccc1C(=O)N1CCC(N2C(=O)CCc3ccccc32)CC1 [Example 58, 1-{1-[2-(N-Methyl-N-ethylamino)-4-methoxybenzoyl]-4-piperidinyl}-3,4-dihydrocarbostyril]",450
6,"CC(=O)N1CCN(CCCOc2ccc(C(=O)N3CCC(N4C(=O)CCc5ccccc54)CC3)cc2)CC1 [Example 134, 1-[1-{4-[3-(4-Acetyl-1-piperazinyl)propoxy]-benzoyl}-4-piperidinyl]-3,4-dihydrocarbostyril]",160
7,"CN(C)C(=O)CCCOc1ccc(C(=O)N2CCC(N3C(=O)CCc4ccccc43)CC2)cc1 [Example 148, 1-{1-[4-(3-Dimethylaminocarbonylpropoxy)benzoyl]-4-piperidinyl}-3,4-dihydrocarbostyril]",360
8,"CC(=O)N1CCN(C(=O)CCCCCOc2ccc(C(=O)N3CCC(N4C(=O)CCc5ccccc54)CC3)cc2)CC1 [Example 271, 1-{1-(4-[5-(4-Acetyl-1-piperazinylcarbonyl)pentyloxy]benzoyl)-4-piperidinyl}-3,4-dihydrocarbostyril]",42
9,"O=C(Nc1ccccc1)N1CCN(CCCOc2ccc(C(=O)N3CCC(N4C(=O)CCc5ccccc54)CC3)cc2)CC1 [Example 135, 1-[1-{4-[3-(4-Anilinocarbonyl-1-piperazinyl)propoxy]benzoyl}-4-piperidinyl]-3,4-dihydrocarbostyril]",200
10,"CNC(=O)NCCCOc1ccc(C(=O)N2CCC(N3C(=O)CCc4ccccc43)CC2)cc1 [Example 23, 1-[1-{4-[3-(3-Methylureido)propoxy]benzoyl}-4-piperidinyl]-3,4-dihydrocarbostyril]",240
11,"CCOc1ccc(C(=O)N2CCC(N3C(=O)C(C(=O)O)Cc4ccccc43)CC2)c(OC)c1 (stereo not drawn) [Example 152, 1-[1-(2-Methoxy-4-ethoxybenzoyl)-4-piperidinyl]-3-carboxy-3,4-dihydrocarbostyril]",1600
12,"O=C(c1ccc(C=CCCO)cc1)N1CCC(N2C(=O)CCc3ccccc32)CC1 [Example 122, 1-{1-[4-(4-Hydroxy-1-butenyl)benzoyl]-4-piperidinyl}-3,4-dihydrocarbostyril]",710
13,"CC(=O)NCC(=O)NCCCOc1ccc(C(=O)N2CCC(N3C(=O)CCc4ccccc43)CC2)cc1 [Example 181, 1-{1-[4-(3-Acetylaminoacetylaminopropoxy)benzoyl]-4-piperidinyl}-3,4-dihydrocarbostyril]",230
14,"O=C(CN1CCN(CCCOc2ccc(C(=O)N3CCC(N4C(=O)CCc5ccccc54)CC3)cc2)CC1)c1ccccc1 [Example 137, 1-[1-{4-[3-(4-Benzoylmethyl-1-piperazinyl)propoxy]benzoyl}-4-piperidinyl]-3,4-dihydrocarbostyril.dioxalate]",120
15,"CN(C)CC(O)COCCCCCOc1ccc(C(=O)N2CCC(N3C(=O)CCc4ccccc43)CC2)cc1 (stereo not drawn) [Example 191, 1-{1-[4-(5-(2-Hydroxy-3-dimethylaminopropoxy)pentyloxy)benzoyl]-4-piperidinyl}-3,4-dihydrocarbostyril]",34
16,"O=C(c1ccc(OC2CCCCC2)cc1)N1CCC(N2C(=O)CCc3ccccc32)CC1 [Example 99, 1-[1-(4-Cyclohexyloxybenzoyl)-4-piperidinyl]3,4-dihydrocarbostyril]",960
17,"CC(=O)OCCCCCOc1ccc(C(=O)N2CCC(N3C(=O)CCc4ccccc43)CC2)cc1 [Example 39, 1-{1-[4-(5-Acetoxypentyloxy)benzoyl]-4-piperidinyl}-3,4-dihydrocarbostyril]",150
18,"NC(=O)OCCCCCOc1ccc(C(=O)N2CCC(N3C(=O)CCc4ccccc43)CC2)cc1 [Example 129, 1-{1-[4-(5-Carbamoyloxypentyloxy)benzoyl]-4-piperidinyl}-3,4-dihydrocarbostyril]",180
19,"CNc1ccc(C(=O)N2CCC(N3C(=O)CCc4ccccc43)CC2)c(OC)c1 [Example 48, 1-[1-(2-Methoxy-4-methylaminobenzoyl)-4-piperidinyl]-3,4-dihydrocarbostyril]",400

# Same assay, conditions: [H]3-Arg-vasopressin 2×10^-10 M, rat liver plasma membrane, 37° C., 10 minutes, pH 8.0
row,SMILES,IC50 [nM]
1,"COc1ccc(C(=O)N2CCC(N3C(=O)CCc4ccccc43)C(C)C2)c(OC)c1 (stereo not drawn) [Example 118, 1-[3-Methyl-1-(2,4-dimethoxycarbonyl)-4-piperidinyl]-3,4-dihydrocarbostyril]",260
